Results reported in patent US7303876B2 (Applera Corporation, priority 2000, dated 2007).

Tests used:
Calf thymus DNA = experiment: Effect of DTAB on DNA recovery when added before, during, and after DNA binding to GF/B; settings: pretreatment with 5M salt with 1% DTAB (D+) versus without (D−)
Experimental: The inhibitory effect of the cationic surfactant, DTAB, was further examined. DTAB was introduced at various points of the purification reaction, before DNA binding, during binding, or after DNA binding has occurred on the solid phase. DNA binding and purification procedures were carried out using GF/B glass fiber filters (in a 96-well format) on the ABI PRISM 6100.
In set A, the GF/B membrane was pretreated with 100 μl of liquid lacking (A−) or containing (A+) 1% DTAB. Calf thymus DNA (8 μg) was then bound in 800 μL of 50 mM MES, pH 6.0, 20 mM EDTA, and 5 M salt (either NaBr or GUSCN).
In set B, the membranes were not prewashed. Calf thymus DNA (8 μg) was bound to GF/B glass fiber filters in 800 μl of 50 mM MES, pH, 6.0, 20 mM EDTA, and 5 M salt (either NaBr or GuSCN). Following binding, the membranes were washed in 50 mM MES, pH 6.0, 20 mM EDTA and 5 M salt (either NaBr or GuSCN) either lacking (B−) or containing (B+) 1% DTAB.
In set C, the membranes were not prewashed. Calf thymus DNA (8 μg) was bound to GF/B glass fiber filters in 800 μl of 50 mM MES, pH 6.0, 20 mM EDTA, and 5 M salt (either NaBr or GUSCN) either lacking (C−) or containing (C+) 1% DTAB.
In set D, the GF/B membrane was pretreated with 100 μl of 5 M salt (either NaBr or GuSCN) lacking (A−) or containing (A+) 1% DTAB. […]

[1] = Solubility of 1% cationic surfactants in 5M chaotropic salt solutions containing 2% Tween 20; settings: 5M chaotropic salts, 2% Tween 20
Source text: The solubilities of several cationic surfactants were examined in different chaotropic salt solutions. The cationic surfactants examined were cetyltrimethylammonium bromide (CTAB), cetyltrimethylammonium chloride (CTACl), tetradecyltrimethylammonium bromide (TTAB), tetradecyltrimethylammonium chloride (TTACl), dodecyltrimethylammonium bromide (DTAB), dodecyltrimethylammonium (DTACl), dodecylethyidimethylammonium bromide (DEDTAB), decyltrimethylammonium bromide (D10TAB), and dodecyltriphenylphosphonium bromide (DTPB). Each of the cationic surfactants tested was presented in a 1% concentration. Each of the cationic surfactants was examined in a 5M solution of one of the chaotropic salts containing 2% Tween 20. Each cationic surfactant and salt combination was tested at pH 6 (50 mM MES), pH 8 (50 mM Tris-HCl), and pH 10 (50 mM AMP).

Liver tissue = Liver tissue disaggregation by 1% surfactant with or without Proteinase K at 60° C.; settings: 60° C., 1% surfactant
Experimental: To evaluate the ability of various cationic surfactants to increase the digestion of tissue by Proteinase K, liver slices were digested using reaction compositions including one of the sixteen surfactants (shown in Table 4), both with and without Proteinase K. The reducing agent dithiothreitol (DTT) was included to evaluate the effect of reducing conditions on tissue digestion. […] One of the sixteen surfactants was added to one pair of tubes to yield a final concentration of 1% surfactant. The seventeenth pair of tubes served as non-surfactant controls. One milligram (mg) of Proteinase K was added to one tube of each of the seventeen pairs.
PK=presence or absence of Proteinase K in the reaction composition; Y=Proteinase K was present; N=Proteinase K was not present in the reaction composition.

Calf thymus genomic DNA = experiment: Reversal by Tween 20 of DTAB inhibition of DNA recovery from GF/B
Experimental: Having identified the cationic surfactant as a major component inhibiting DNA recovery, the ability of a nonionic surfactant to reverse the inhibitory effect was examined. Calf thymus genomic DNA (8 μg) was bound to the glass fiber GF/B membrane in the presence of 0%, 1% and 4% dodecyltrimethylammonium bromide (DTAB) with increasing concentrations of Tween 20.
The binding buffer also contained 5M GuSCN, 20 mM EDTA, and 50 mM MES (pH 6.0). DNA was first eluted with 200 μl of TE followed by a separate elution with 100 μl of 0.1N NaOH. All binding and elution steps were done at ambient temperature.

[2] = test system: cationic surfactant: nucleic acid precipitate; experiment: Solubilizing the cationic surfactant: nucleic acid precipitate (calf thymus DNA + 1% CTAB); settings: Calf thymus DNA 700 μg/ml, 100 mM Tris, pH 8, additive at final concentration
Experimental: Calf thymus DNA (Sigma; 700 μg/ml lightly sheared using an 18 gauge hypodermic needle) was mixed with 1% CTAB in 100 mM Tris, pH 8 to form a reaction composition.

[3] = Solubility of surfactants (0.5% Sarkosyl, LDS, SDS, CTAB; 5.0% others) in salt solutions
Experimental: In certain instances, the solubility of detergents in high salt may relate to on the composition of the salt and the detergent itself. A mixing experiment was performed to examine the solubility of a variety of anionic, cationic, and nonionic surfactants in different salt compositions. […] The salt solutions contained Lil, Nal, KI, Rbl, Csl , GuSCN, GuHCl, or NaClO4, at pH 6.0 or 10.0. […] The solubility of the surfactants was scored as either soluble or insoluble. The solubility of the surfactant in the salt solution was determined initially by visual observations for cloudiness or precipitate formation. The resulting solutions were also centrifuged to verify the absence of a precipitate by the absence of a precipitate pellet.

Row | Compound | subsequent binding of nucleic acid to GF/B (Calf thymus DNA) | relative solubility in chaotropic salt solutions (in words) [1] | Tissue Disaggregation (Liver tissue; Fifteen Minutes Incubation, Proteinase K not present (N)) | Tissue Disaggregation (Liver tissue; Fifteen Minutes Incubation, Proteinase K present (Y)) | Tissue Disaggregation (Liver tissue; Fifty-Two Minutes Incubation, Proteinase K not present (N)) | Tissue Disaggregation (Liver tissue; Fifty-Two Minutes Incubation, Proteinase K present (Y)) | concentration at which the amount of DNA recovered increased significantly (Calf thymus genomic DNA; 0% DTAB, FIG. 21) | concentration that substantially blocked the inhibitory effect of the cationic surfactant (Calf thymus genomic DNA; 1% DTAB, FIG. 22) | concentration that substantially blocked the inhibitory effect of the cationic surfactant (Calf thymus genomic DNA; 4% DTAB, FIG. 23) | Result (solubilization of the CTAB: nucleic acid precipitate) [2] | Solubility of surfactant ([3]; 4 M GuHCl, Urea, pH 6.0) | Solubility of surfactant ([3]; 4 M GuHCl, Urea, pH 10.0) | Solubility of surfactant ([3]; 4 M KI, Urea, pH 6.0) | Solubility of surfactant ([3]; 4 M KI, Urea, pH 10.0) | Solubility of surfactant ([3]; 6 M GuHCl, pH 6.0) | Solubility of surfactant ([3]; 6 M GuHCl, pH 10.0) | Solubility of surfactant ([3]; 6 M NaI, pH 10.0)
1 | CCCCCCCCCCCC[N+](C)(C)C.[Br-] [DTAB, dodecyltrimethylammonium bromide] | did not appear to influence subsequent binding of nucleic acid | more soluble than larger surfactants | 0 | 2 | 0 | 3 |  |  |  |  |  |  |  |  |  |  | 
2 | polyoxyethylenesorbitan monolaurate [Tween 20] |  |  |  |  |  |  | at least 1% | at least 2% | at least 4% | neither NaCl nor Tween 20, used alone, solubilized the precipitate | S | S | S | S | S | S | S
